{"source": "patent US7473688B2", "about": "“Indolobenzazepine HCV NS5B inhibitors” (Bristol-Myers Squibb Company, priority 2005, dated 2009)", "key": {"[1]": {"test_system": "HCV replicon", "test": "HCV replicon FRET assay", "assay_type": "cell-based", "conditions": "Hepatitis C virus", "in_short": "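HCV replicon cells, with or without Renilla luciferase reporter, incubated with titrated compounds at 37 °C; Alamar blue read for cytotoxicity. NS3 protease activity read from lysates with 20 μM EDANS/DABCYL FRET peptide (340/490 nm, kinetic), or by Dual-Glo luciferase. Background from highest protease-inhibitor wells; EC50 = 50% signal reduction.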"}, "[2]": {"target": "T1, HCV NS5B (Hepatitis C virus genotype 1b, UniProt Q9WMX2)", "T1 construct": "The protein was expressed with an 18 amino acid C-terminal truncation to enhance the solubility; made in house; host or cells: E. coli BL21 (DE3), pET21a", "T1 sequence (Q9WMX2 2420-2992)": "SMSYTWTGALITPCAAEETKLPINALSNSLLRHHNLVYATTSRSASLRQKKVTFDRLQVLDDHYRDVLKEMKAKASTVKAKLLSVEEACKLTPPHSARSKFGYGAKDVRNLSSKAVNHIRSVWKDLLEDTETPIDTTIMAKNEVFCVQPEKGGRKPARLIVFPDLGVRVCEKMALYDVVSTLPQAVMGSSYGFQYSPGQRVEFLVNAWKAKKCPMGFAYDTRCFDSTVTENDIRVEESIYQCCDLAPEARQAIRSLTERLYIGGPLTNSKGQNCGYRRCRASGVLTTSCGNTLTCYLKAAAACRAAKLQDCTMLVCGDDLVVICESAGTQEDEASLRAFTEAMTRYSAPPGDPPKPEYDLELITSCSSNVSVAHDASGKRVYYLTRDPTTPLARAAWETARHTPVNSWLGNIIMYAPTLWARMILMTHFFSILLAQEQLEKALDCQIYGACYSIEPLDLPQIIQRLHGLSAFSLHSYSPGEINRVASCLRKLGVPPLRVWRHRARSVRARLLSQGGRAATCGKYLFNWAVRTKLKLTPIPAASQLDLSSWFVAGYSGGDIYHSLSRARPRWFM", "test": "HCV NS5B RdRp enzyme assay (preincubation protocol)", "assay_type": "biochemical", "in_short": "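C-terminally truncated (Δ18) genotype 1b NS5B from E. coli, 14 nM, added to compound, then polyA template (0.2 nM), 3H-UTP (0.29 μM) and oligo-dT12 primer precaptured on streptavidin SPA beads. 4 h at 30 °C, pH 7.5, 2% DMSO; SPA readout; IC50 from seven concentrations by logistic fit.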"}, "[3]": {"conditions": "Table 1a, FRET assay, read-out: EC50*"}, "[4]": {"conditions": "Table 1, FRET assay, read-out: EC50*"}, "[5]": {"conditions": "Table 1b, FRET assay, read-out: EC50*"}}, "note": "pEC50, pIC50: −log10 of the molar value. Read-outs that look alike come from different tables or passages of the source.", "data": [{"smiles": "COc1ccc2c(c1)CC(C(=O)N(C)CC(=O)N1CCOCC1)Cn1c-2c(C2CCCCC2)c2ccc(C(=O)NS(=O)(=O)N(C)C)cc21", "note": "(stereo not drawn)", "values": [{"measurement": "pEC50", "setting": "[1]; [3]", "value": "6.00 to 7.52"}, {"measurement": "pIC50", "setting": "[2]; Table 1a, read-out: IC50*", "value": "> 7.70"}]}, {"smiles": "CN(C)S(=O)(=O)NC(=O)c1ccc2c(C3CCCCC3)c3n(c2c1)CC(C(=O)N1CCC(N2CCCC(F)(F)C2)CC1)=Cc1ccccc1-3", "values": [{"measurement": "pEC50", "setting": "[1]; [4]", "value": "6.00 to 7.15"}, {"measurement": "pIC50", "setting": "[2]; Table 1, read-out: IC50*", "value": "6.00 to 8.00"}]}, {"smiles": "COc1ccc2c(c1)C=C(C(=O)N1CC(O)C1)Cn1c-2c(C2CCCCC2)c2ccc(C(=O)NS(=O)(=O)N(C)C)cc21", "values": [{"measurement": "pEC50", "setting": "[1]; [5]", "value": "6.00 to 7.52"}, {"measurement": "pIC50", "setting": "[2]; Table 1b, read-out: IC50*", "value": "6.00 to 7.70"}]}, {"smiles": "COc1ccc2c(c1)C=C(C(=O)N1CCOCC1)Cn1c-2c(C2CCCCC2)c2ccc(C(=O)NS(=O)(=O)c3ccc(C)cn3)cc21", "values": [{"measurement": "pEC50", "setting": "[1]; [5]", "value": "6.00 to 7.52"}, {"measurement": "pIC50", "setting": "[2]; Table 1b, read-out: IC50*", "value": "6.00 to 7.70"}]}, {"smiles": "C[C@@H]1CN(C(=O)C2=Cc3ccccc3-c3c(C4CCCCC4)c4ccc(C(=O)NCCN(C)C)cc4n3C2)C[C@H](C)O1", "values": [{"measurement": "pEC50", "setting": "[1]; [4]", "value": "5.00 to 6.00"}, {"measurement": "pIC50", "setting": "[2]; Table 1, read-out: IC50*", "value": "6.00 to 8.00"}]}, {"smiles": "O=C(Nc1nccs1)C1=Cc2ccccc2-c2c(C3CCCCC3)c3ccc(C(=O)O)cc3n2C1", "values": [{"measurement": "pEC50", "setting": "[1]; [4]", "value": "5.00 to 6.00"}, {"measurement": "pIC50", "setting": "[2]; Table 1, read-out: IC50*", "value": "6.00 to 8.00"}]}, {"smiles": "CC(=O)NN(C)C(=O)C1=Cc2ccccc2-c2c(C3CCCCC3)c3ccc(C(=O)NS(=O)(=O)N(C)C)cc3n2C1", "values": [{"measurement": "pEC50", "setting": "[1]; [4]", "value": "6.00 to 7.15"}, {"measurement": "pIC50", "setting": "[2]; Table 1, read-out: IC50*", "value": "6.00 to 8.00"}]}, {"smiles": "COC(=O)c1ccc2c(C3CCCCC3)c3n(c2c1)CC(C(=O)NC1CCOCC1)=Cc1cc(OC)ccc1-3", "values": [{"measurement": "pEC50", "setting": "[1]; [3]", "value": "6.00 to 7.52"}, {"measurement": "pIC50", "setting": "[2]; Table 1a, read-out: IC50*", "value": "6.00 to 8.00"}]}, {"smiles": "COc1ccc2c(c1)CC(C(=O)NCc1cc(C)nn1C)Cn1c-2c(C2CCCCC2)c2ccc(C(=O)NS(=O)(=O)N(C)C)cc21", "note": "(stereo not drawn)", "values": [{"measurement": "pEC50", "setting": "[1]; [3]", "value": "6.00 to 7.52"}, {"measurement": "pIC50", "setting": "[2]; Table 1a, read-out: IC50*", "value": "6.00 to 8.00"}]}, {"smiles": "CN(C)S(=O)(=O)NC(=O)c1ccc2c(C3CCCCC3)c3n(c2c1)CC(C(=O)N1CCCC(=O)N1)=Cc1ccccc1-3", "note": "[drawing 236]", "values": [{"measurement": "pEC50", "setting": "[1]; [3]", "value": "6.00 to 7.52"}, {"measurement": "pIC50", "setting": "[2]; Table 1a, read-out: IC50*", "value": "6.00 to 8.00"}]}, {"smiles": "COc1ccc2c(c1)C=C(C(=O)NCc1nccs1)Cn1c-2c(C2CCCCC2)c2ccc(C(=O)NS(=O)(=O)N(C)C)cc21", "values": [{"measurement": "pEC50", "setting": "[1]; [3]", "value": "6.00 to 7.52"}, {"measurement": "pIC50", "setting": "[2]; Table 1a, read-out: IC50*", "value": "6.00 to 8.00"}]}, {"smiles": "COc1ccc2c(c1)CC(NC(=O)N(C)CC(=O)NC(C)C)Cn1c-2c(C2CCCCC2)c2ccc(C(=O)NS(=O)(=O)N(C)C)cc21", "note": "(stereo not drawn)", "values": [{"measurement": "pEC50", "setting": "[1]; [5]", "value": "6.00 to 7.52"}, {"measurement": "pIC50", "setting": "[2]; Table 1b, read-out: IC50*", "value": "6.00 to 7.70"}]}, {"smiles": "COc1ccc2c(c1)C=C(C(=O)N1CCC(C(=O)N3CCOCC3)CC1)Cn1c-2c(C2CCCCC2)c2ccc(C(=O)NS(=O)(=O)N(C)C)cc21", "values": [{"measurement": "pEC50", "setting": "[1]; [3]", "value": "6.00 to 7.52"}, {"measurement": "pIC50", "setting": "[2]; Table 1a, read-out: IC50*", "value": "6.00 to 8.00"}]}, {"smiles": "COc1ccc2c(c1)C=C(C(=O)N1CC(C)CC(O)C1(C)C)Cn1c-2c(C2CCCCC2)c2ccc(C(=O)NS(=O)(=O)N(C)C)cc21", "note": "(stereo not drawn)", "values": [{"measurement": "pEC50", "setting": "[1]; [3]", "value": "6.00 to 7.52"}, {"measurement": "pIC50", "setting": "[2]; Table 1a, read-out: IC50*", "value": "> 7.70"}]}, {"smiles": "COC(=O)c1ccc2c(C3CCCCC3)c3n(c2c1)CC(C(=O)N1CCC(N2CCOCC2)CC1)=Cc1cc(OC)ccc1-3", "values": [{"measurement": "pEC50", "setting": "[1]; [4]", "value": "5.00 to 6.00"}, {"measurement": "pIC50", "setting": "[2]; Table 1, read-out: IC50*", "value": "< 6.00"}]}, {"smiles": "CN(C)S(=O)(=O)NC(=O)c1ccc2c(C3CCCCC3)c3n(c2c1)CC(C(=O)N1CCC2(CC1)OCCO2)=Cc1ccccc1-3", "values": [{"measurement": "pEC50", "setting": "[1]", "value": "6.00 to 7.15"}, {"measurement": "pIC50", "setting": "[2]; IC50*, Table 1", "value": "6.00 to 8.00"}]}, {"smiles": "CN(C)S(=O)(=O)NC(=O)c1ccc2c(C3CCCCC3)c3n(c2c1)CC(C(=O)N1CCN(C(=O)c2ccccc2)CC1)=Cc1ccccc1-3", "values": [{"measurement": "pEC50", "setting": "[1]; [4]", "value": "6.00 to 7.15"}, {"measurement": "pIC50", "setting": "[2]; Table 1, read-out: IC50*", "value": "6.00 to 8.00"}]}, {"smiles": "CN(C)S(=O)(=O)NC(=O)c1ccc2c(C3CCCCC3)c3n(c2c1)CC(C(=O)N1CCC(N2CCC(F)CC2)CC1)=Cc1ccccc1-3", "values": [{"measurement": "pEC50", "setting": "[1]; [4]", "value": "6.00 to 7.15"}, {"measurement": "pIC50", "setting": "[2]; Table 1, read-out: IC50*", "value": "6.00 to 8.00"}]}, {"smiles": "COc1ccc2c(c1)C=C(C(=O)N(C)[C@H](C(=O)N(C)C)C(C)C)Cn1c-2c(C2CCCCC2)c2ccc(C(=O)NS(=O)(=O)N(C)C)cc21", "values": [{"measurement": "pEC50", "setting": "[1]; [5]", "value": "6.00 to 7.52"}, {"measurement": "pIC50", "setting": "[2]; Table 1b, read-out: IC50*", "value": "> 7.70"}]}, {"smiles": "O=C(O)c1ccc2c(C3CCCCC3)c3n(c2c1)CC(NC(=O)N1CCOCC1)Cc1ccccc1-3", "note": "(stereo not drawn)", "values": [{"measurement": "pEC50", "setting": "[1]; [4]", "value": "6.00 to 7.15"}, {"measurement": "pIC50", "setting": "[2]; Table 1, read-out: IC50*", "value": "6.00 to 8.00"}]}, {"smiles": "COC(=O)c1ccc2c(C3CCCCC3)c3n(c2c1)CC(C(=O)N1CCC(N2CCCC(F)C2)CC1)=Cc1ccccc1-3", "note": "(stereo not drawn)", "values": [{"measurement": "pEC50", "setting": "[1]; [4]", "value": "< 6.43"}, {"measurement": "pIC50", "setting": "[2]; Table 1, read-out: IC50*", "value": "< 6.00"}]}, {"smiles": "CN(C)S(=O)(=O)NC(=O)c1ccc2c(C3CCCCC3)c3n(c2c1)CC(C(=O)N1CCC(=O)CC1)=Cc1ccccc1-3", "values": [{"measurement": "pEC50", "setting": "[1]", "value": "6.00 to 7.15"}, {"measurement": "pIC50", "setting": "[2]; IC50*, Table 1", "value": "6.00 to 8.00"}]}, {"smiles": "COc1ccc2c(c1)C=C(C(=O)N[C@@](C)(CO)C(=O)N(C)C)Cn1c-2c(C2CCCCC2)c2ccc(C(=O)NS(=O)(=O)N(C)C)cc21", "values": [{"measurement": "pEC50", "setting": "[1]; [5]", "value": "6.00 to 7.52"}, {"measurement": "pIC50", "setting": "[2]; Table 1b, read-out: IC50*", "value": "6.00 to 7.70"}]}, {"smiles": "COc1ccc2c(c1)CC(C(=O)N1CCN(CCOCCO)CC1)Cn1c-2c(C2CCCCC2)c2ccc(C(=O)NS(=O)(=O)N(C)C)cc21", "note": "(stereo not drawn)", "values": [{"measurement": "pEC50", "setting": "[1]; [5]", "value": "6.00 to 7.52"}, {"measurement": "pIC50", "setting": "[2]; Table 1b, read-out: IC50*", "value": "6.00 to 7.70"}]}, {"smiles": "COC[C@H]1CN(C(=O)C2=Cc3cc(OC)ccc3-c3c(C4CCCCC4)c4ccc(C(=O)NS(=O)(=O)N(C)C)cc4n3C2)CCO1", "values": [{"measurement": "pEC50", "setting": "[1]; [5]", "value": "6.00 to 7.52"}, {"measurement": "pIC50", "setting": "[2]; Table 1b, read-out: IC50*", "value": "6.00 to 7.70"}]}, {"smiles": "COC(=O)c1ccc2c(C3CCCCC3)c3n(c2c1)CC(C(=O)N(C)CC1CCCN(C)C1)=Cc1ccccc1-3", "note": "(stereo not drawn)", "values": [{"measurement": "pEC50", "setting": "[1]; [4]", "value": "5.00 to 6.00"}, {"measurement": "pIC50", "setting": "[2]; Table 1, read-out: IC50*", "value": "6.00 to 8.00"}]}, {"smiles": "CN(C)C(=O)[C@@H]1CCCN1C(=O)C1=Cc2ccccc2-c2c(C3CCCCC3)c3ccc(C(=O)NS(=O)(=O)N(C)C)cc3n2C1", "values": [{"measurement": "pEC50", "setting": "[1]; [4]", "value": "6.00 to 7.15"}, {"measurement": "pIC50", "setting": "[2]; Table 1, read-out: IC50*", "value": "6.00 to 8.00"}]}]}
